Common to all, as to format: functional
Assay [1] relates to Fusarium graminearum. As to the kind of experiment: Antifungal activity against Fusarium graminearum assessed as inhibition rate at 50 ug/mL.
Assay [2] relates to Colletotrichum gossypii. The assay is described as follows: Antifungal activity against Colletotrichum gossypii assessed as inhibition rate at 50 ug/mL.
The subject of assay [3] is Rhizoctonia solani. The assay is described as follows: Antifungal activity against Rhizoctonia solani assessed as inhibition rate at 50 ug/mL.
Assay [4] concerns Dothiorella gregaria. The assay is described as follows: Antifungal activity against Dothiorella gregaria assessed as inhibition rate at 50 ug/mL.
Assay [5] relates to Fusarium oxysporum. The assay is described as follows: Antifungal activity against Fusarium oxysporum assessed as inhibition rate at 50 ug/mL.
Assay [6] has as its system Botrytis. The assay is described as follows: Antifungal activity against Botrytis cinereapers assessed as inhibition rate at 50 ug/mL.
Assay [7] has as its system Pseudoperonospora cubensis. As to the kind of experiment: Antifungal activity against Pseudoperonospora cubensis inoculated in inoculated in cucumber plant assessed as preventive fungicidal activity at 100 ug/mL measured after 7 days.
In assay [8] the test system is Podosphaera fuliginea. The assay is described as follows: Antifungal activity against Podosphaera fuliginea inoculated in inoculated in cucumber plant assessed as preventive fungicidal activity at 100 ug/mL measured after 7 days.
Assay [9] deals with Podosphaera fuliginea. As to the kind of experiment: Antifungal activity against Podosphaera fuliginea inoculated in inoculated in cucumber plant assessed as preventive fungicidal activity at 25 ug/mL measured after 7 days.
Assay [10] has as its system Pseudoperonospora cubensis. As to the kind of experiment: Antifungal activity against Pseudoperonospora cubensis inoculated in inoculated in cucumber plant assessed as preventive fungicidal activity at 50 ug/mL measured after 7 days.
The test system of assay [11] is Pseudoperonospora cubensis. As to the kind of experiment: Antifungal activity against Pseudoperonospora cubensis inoculated in inoculated in cucumber plant assessed as preventive fungicidal activity measured after 7 days. The conditions noted are these: 168 h.
Assay [12] deals with Podosphaera fuliginea. As to the kind of experiment: Antifungal activity against Podosphaera fuliginea inoculated in inoculated in cucumber plant assessed as preventive fungicidal activity measured after 7 days. The conditions noted are these: 168 h.
For assay [13], the system named is Pseudoperonospora cubensis. As to the kind of experiment: Antifungal activity against Pseudoperonospora cubensis inoculated in inoculated in cucumber plant assessed as preventive fungicidal activity at 25 ug/mL measured after 7 days.
Assay [14] relates to Podosphaera fuliginea. The assay is described as follows: Antifungal activity against Podosphaera fuliginea inoculated in inoculated in cucumber plant assessed as preventive fungicidal activity at 50 ug/mL measured after 7 days.

In brackets after ≈: the same amount, converted by molar mass.

As a reminder, the inhibition is how much of the control response was suppressed. Turning to `CO/C=C(/C(=O)OC)c1ccccc1CSc1nnc(N)s1`, the inhibition at 50 µg/mL in assay [1] was 40%; in [2], 39%; in [3], 61%; in assay [4], 55%; in assay [5] it was 65%; in [6], 11%.

In the case of `CO/N=C(/C(=O)OC)c1ccccc1CSc1cc(=O)c2ccccc2s1`, the inhibition at 50 µg/mL in [1] came to 61%; in assay [2] it was 48%; in assay [3], 73%; in assay [4], 19%; in [5], 44%; in assay [6], 23%.

For `CO/N=C(/C(=O)OC)c1ccccc1CSc1nc2ccccc2[nH]1`, the Activity in assay [7] and in [8] was 0% each time. Moreover, the inhibition at 50 µg/mL in assay [1] was 69%; in [2], 82%; in assay [3], 90%; in assay [4], 87%; in [5], 72%; in assay [6] it was 77%.

For the compound `CO/C=C(/C(=O)OC)c1ccccc1CSc1nn2c(C)nnc2s1`, the inhibition at 50 µg/mL in assay [1] was 53%; in assay [2], 50%; in [3], 83%; in assay [4] it was 82%; in assay [5], 59%; in assay [6], 41%.

With `CO/N=C(/C(=O)OC)c1ccccc1CSc1nc2nc(C)cc(C)n2n1`, the inhibition at 50 µg/mL in [1] was determined as 50%; in assay [2], 35%; in [3] it was 69%; in assay [4], 78%; in assay [5], 50%; in [6], 14%.

As for `CO/C=C(/C(=O)OC)c1ccccc1CSc1nc2nc(C)cc(C)n2n1`, the inhibition at 50 µg/mL amounted to 47% in [1]; 39% in assay [2]; 66% in [3]; 78% in assay [4]; 61% in [5]; 7% in assay [6].

For `CO/N=C(/C(=O)OC)c1ccccc1CSc1nnc(CSc2nc3nc(C)cc(C)n3n2)s1`, the inhibition at 50 µg/mL in assay [1] was 45%; in [2] it was 32%; in assay [3], 78%; in [4] it was 58%; in [5], 54%; in assay [6], 64%.

Take `CO/C=C(/C(=O)OC)c1ccccc1CSc1nnc(CSc2nc3nc(C)cc(C)n3n2)s1`: the inhibition at 50 µg/mL in assay [1] is 44%; in [2], 39%; in assay [3] it was 58%; in assay [4], 69%; in assay [5], 61%; in assay [6] it was 14%.

For the compound `CO/N=C(/C(=O)OC)c1ccccc1CSc1nc(C)cc(C)n1`, the inhibition at 50 µg/mL in [1] was found to be 61%; in [2], 59%; in [3], 73%; in assay [4] it was 82%; in assay [5] it was 76%; in [6] it was 27%.

As for `CO/N=C(/C(=O)OC)c1ccccc1CSc1nnc(CSc2nc3nc(C)cc(C)n3n2)o1`, the inhibition at 50 µg/mL was determined as 41% in assay [1]; 36% in assay [2]; 88% in assay [3]; 70% in [4]; 63% in assay [5]; 77% in assay [6].

Consider `CO/C=C(/C(=O)OC)c1ccccc1CSc1nc2ccccc2o1`, for which the inhibition at 50 µg/mL in [1] was 81%; in assay [2], 83%; in assay [3] it was 78%; in assay [4], 46%; in assay [5], 69%; in assay [6], 47%.

Consider `CO/C=C(/C(=O)OC)c1ccccc1CSc1cc(=O)c2ccccc2s1`, for which the inhibition at 50 µg/mL in assay [1] came to 53%; in assay [2] it was 52%; in [3] it was 64%; in assay [4] it was 14%; in [5], 48%; in [6], 18%.

Turning to `CO/C=C(/C(=O)OC)c1ccccc1CSc1nnc(CSc2nc3nc(C)cc(C)n3n2)n1-c1ccccc1`, the inhibition at 50 µg/mL amounted to 36% in assay [1]; 17% in assay [2]; 37% in assay [3]; 11% in assay [4]; 40% in [5]; 7% in assay [6].

In the case of `CO/C=C(/C(=O)OC)c1ccccc1CSc1nnc(-c2ccccc2)n1N`, the inhibition at 50 µg/mL in assay [1] is 69%; in assay [2] it was 64%; in assay [3], 84%; in assay [4], 76%; in [5] it was 76%; in assay [6], 41%.

What is called EC90 is the concentration at which the effect reaches the 90% level. As for `CO/N=C(/C(=O)OC)c1ccccc1COc1ccccc1C` [KRESOXIM-METHYL], the Activity in assay [7] stood at 80%; in assay [9], 98%; in assay [10] it was 56%; in assay [13], 27%; in [14] it was 100%; in assay [8] it was 100%. Moreover, the inhibition at 50 µg/mL in assay [1] is 53%; in assay [2] it was 50%; in assay [3], 70%; in assay [4] it was 82%; in [5] it was 61%; in assay [6], 50%. Besides, the EC90 was found to be 155 µg/mL (≈ 494 µM) in assay [11] and 7.3 µg/mL (≈ 23.3 µM) in assay [12].

As to `CC(C)(C)C(=O)C(Oc1ccc(Cl)cc1)n1cncn1` (stereo unspecified) [TRIADIMEFON], the inhibition at 50 µg/mL came to 72% in assay [1]; 95% in assay [2]; 90% in assay [3]; 61% in assay [4]; 86% in assay [5]; 84% in assay [6].

For the compound `CO/C=C(/C(=O)OC)c1ccccc1CSc1nnc(CSc2nc3nc(C)cc(C)n3n2)n1N`, the inhibition at 50 µg/mL in assay [1] is 43%; in assay [2], 35%; in assay [3], 73%; in assay [4] it was 78%; in assay [5], 44%; in assay [6], 14%.

For `CO/N=C(/C(=O)OC)c1ccccc1CSc1nc2ccccc2s1`, the Activity is 84% in assay [7]; 97% in assay [9]; 66% in assay [10]; 39% in [13]; 100% in assay [14]; 100% in assay [8]. Besides, the inhibition at 50 µg/mL in assay [1] worked out at 81%; in assay [2], 75%; in assay [3] it was 82%; in assay [4], 84%; in assay [5] it was 74%; in [6], 52%. In addition, the EC90 in [11] is 150 µg/mL (≈ 404 µM); in [12], 9.6 µg/mL (≈ 25.8 µM).

As for `CO/C=C(/C(=O)OC)c1ccccc1CSc1nc(C)cc(C)n1`, the Activity in assay [7] amounted to 0%; in assay [14], 40%; in assay [8], 70%. For the same compound, the inhibition at 50 µg/mL came to 74% in [1]; 52% in assay [2]; 83% in assay [3]; 91% in assay [4]; 79% in assay [5]; 52% in assay [6].

On to `CO/C=C(/C(=O)OC)c1ccccc1CSc1nc2ccccc2[nH]1`, for which the inhibition at 50 µg/mL in assay [1] worked out at 53%; in assay [2], 52%; in assay [3], 78%; in [4], 87%; in [5], 45%; in assay [6] it was 47%.

For the compound `CO/C=C(/C(=O)OC)c1ccccc1CSc1nnc(CSc2nc3nc(C)cc(C)n3n2)o1`, the inhibition at 50 µg/mL in assay [1] came out at 36%; in assay [2] it was 39%; in assay [3], 73%; in assay [4], 73%; in assay [5], 36%; in assay [6], 36%.

On to `CO/C=C(/C(=O)OC)c1ccccc1CSc1nc2ccccc2s1`, for which the Activity in assay [7] worked out at 100%; in assay [9], 100%; in [10] it was 94%; in assay [13], 62%; in [14], 100%; in assay [8], 100%. In addition, the inhibition at 50 µg/mL stood at 74% in assay [1]; 86% in assay [2]; 87% in [3]; 94% in [4]; 69% in assay [5]; 47% in assay [6]. Also, the values for the EC90 in [11] and in [12] were 46.3 µg/mL (≈ 125 µM) and 6.17 µg/mL (≈ 16.6 µM), respectively.

Values taken from ChEMBL document CHEMBL3044809, “Design, synthesis, and fungicidal activities of new strobilurin derivatives” (2007).
